{
  "source": "patent US8748575B2",
  "about": "“Therapeutic peptides” (Combimab, Inc., priority 2010, dated 2014)",
  "key": {"[1]": {"assay": "Mouse intestinal secretion assay (suckling mouse assay)", "assay_type": "in vivo", "design": "key to Mouse intestinal secretion assay (suckling mouse): 1+ (lowest activity/potency); ++: Results are graded from 1+ (lowest activity/potency) to 5+ (highest activity/potency); +++: Results are graded from 1+ (lowest activity/potency) to 5+ (highest activity/potency); ++++: Results are graded from 1+ (lowest activity/potency) to 5+ (highest activity/potency); +++++: 5+ (highest activity/potency)", "conditions": "for Mouse intestinal secretion assay (suckling mouse): graded activity/potency", "protocol": "A relevant disease model is the suckling mouse model in which STa (5-18) is deposited into the stomach of 3-4 day old mice, and the accumulation of fluid in their intestines is determined gravimetrically (Parkinson et al., 1994). All GCC peptides were formulated to the desired concentration in Dulbecco's PBS (1×, No Ca++, no Mg++) containing […] immediately prior to dosing. Proteinase inhibitors were prepared as stock solutions in PBS and added to dosing solutions by serial dilution, as needed. The dosing solution (50 μL) was delivered into the stomachs of 2-4 day old mice (3 per dosing group) using a plastic tube attached to the needle of a 1 mL tuberculin syringe. After 3 hours, the animals were sacrificed and dissected to determine the individual weights of the intestines and the rest of the carcass, respectively."}, "[2]": {"system": "T84 cells (GC-C)", "assay": "Intact T84 cell cGMP accumulation assay", "assay_type": "cell-based, Human", "design": "key to CGMP accumulation assay: 1+ (lowest activity/potency); ++: Results are graded from 1+ (lowest activity/potency) to 5+ (highest activity/potency); +++: Results are graded from 1+ (lowest activity/potency) to 5+ (highest activity/potency); ++++: Results are graded from 1+ (lowest activity/potency) to 5+ (highest activity/potency); +++++: 5+ (highest activity/potency)", "conditions": "for activity in the cGMP accumulation assay: FIG. 22, compared to STa peptide; for CGMP accumulation assay: graded activity/potency, T84 cells", "protocol": "The intact T84 cell assay was used to detect the accumulation of cGMP, the product of agonism, upon interaction with a compound (Visweswariah et al., 1992). Human colorectal adenocarcinoma T84 cells were grown to confluence in a 24 well plate using DMEM/F12 medium supplemented with 10% FBS. The media was aspirated from each well and the cells were washed three times with Dulbecco's PBS (1×, no Ca2+ or Mg2+). The cells were then incubated for 30 minutes at 37° C. with 1 mM […] (IBMX) in Optimem medium (no FBS), either with or without potential antagonists. After incubation under these conditions, a 10× concentrated stock of a known GC-C agonist (e.g., STa (5-18)) in PBS was added to each well and the incubation continued for an additional 15 min at 37° C.\nThe reaction was stopped by the addition of 200 μL of Passive Lysis Buffer (Promega) to each well. The supernatant was removed for cGMP quantitation by RIA using ^125I-labeled cGMP 54 antibody relative to an external cGMP standard curve. The cells were scraped from the surface for protein content determination using a BioRad Protein Assay."}},
  "note": "Residues, ends and D or L forms follow the SMILES beside them.",
  "data": [
    {"compound": "C[C@@H]1NC(=O)[C@@H]2CCCN2C(=O)[C@H](CC(N)=O)NC(=O)[C@@H]2CSSC[C@H](N)C(=O)N[C@H]3CSSC[C@H](NC1=O)C(=O)N[C@@H]([C@@H](C)O)C(=O)NCC(=O)N[C@H](C(=O)N[C@@H](Cc1ccc(O)cc1)C(=O)O)CSSC[C@H](NC(=O)[C@H](Cc1ccc(O)cc1)NC(=O)[C@H](CCC(=O)O)NC3=O)C(=O)N2", "note": "[Linaclotide, H2N Cys Cys Glu Tyr Cys Cys Asn Pro Ala Cys Thr Gly Cys Tyr COOH] (HELM PEPTIDE1{C.C.E.Y.C.C.N.P.A.C.T.G.C.Y}$PEPTIDE1,PEPTIDE1,1:R3-6:R3|PEPTIDE1,PEPTIDE1,2:R3-10:R3|PEPTIDE1,PEPTIDE1,5:R3-13:R3$$$V2.0)", "values": [
      {"measurement": "activity in the mouse intestinal secretion assay", "setting": "[1]; FIG. 26, compared to STa", "value": "lower activity"},
      {"measurement": "Mouse intestinal secretion assay (suckling mouse)", "setting": "[1]", "value": "+++"},
      {"measurement": "activity in the cGMP accumulation assay", "setting": "[2]", "value": "lower than the STa peptide"},
      {"measurement": "CGMP accumulation assay", "setting": "[2]", "value": "+++"},
      {"measurement": "activity in the cGMP accumulation assay", "setting": "[2]; second experiment", "value": "lower than the STa peptide"}
    ]},
    {"compound": "H2N Asn Thr Phe Tyr Cys Cys Glu Leu Cys Cys Asn Pro Ala Cys Ala Gly Cys Tyr COOH [STa(1-18)]", "values": [
      {"measurement": "Mouse intestinal secretion assay (suckling mouse)", "setting": "[1]", "value": "++++"},
      {"measurement": "CGMP accumulation assay", "setting": "[2]", "value": "++++"}
    ]}
  ]
}
